Read-outs that look alike come from different tables or passages of the source.
Key:
[1] = molecular target: T1, BRAFV600E full-length (amino acids 2-766) (Homo sapiens, UniProt P15056, V600E); assay: B-Raf Accelerated MEK ATPase assay (BRAMA); format: biochemical; conditions: categorized
T1 construct: His6-tagged BRAFV600E full-length (amino acids 2-766); His6; made in house; host or cells: baculovirus expression system (insect cells)
Summary of the method: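 Coupled-enzyme readout: ADP generated by MEK-mediated ATP hydrolysis, uncoupled from ERK phosphorylation, is linked to NADH oxidation through pyruvate kinase and lactate dehydrogenase.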

[2] = test system: Human colon tumor cells (Colo205); assay: Cell growth inhibition assay (CellTiter-Glo), Colo205; format: cell-based
Summary of the method: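 Colo205 (and SK-MEL-28) cells in RPMI with 10% FBS were exposed to 10-point 1:3 serial dilutions of compound at 0.2% final DMSO for 3 days at 37 °C. Total ATP, a surrogate for cell number, was read by CellTiter-Glo luminescence, with % growth inhibition relative to DMSO-treated wells.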

[3] = test system: Human melanoma cancer cells (SK-MEL-28); assay: Cell growth inhibition assay (CellTiter-Glo), SK-MEL-28; format: cell-based
[4] = B-Raf Activity, Table 1a, highest pIC50 for the one or more runs
[5] = Table 1b, later runs, average pIC50 for the one or more runs, read-out: B-Raf pIC50 (converted)
[6] = COLO 205, 72 h, Table 2a, 3 days incubation, read-out: Activity in Colo205 Tumor Cells
[7] = COLO 205, Table 2b, later runs, average for the one or more runs, categorized, read-out: IC50 for Colo205
[8] = SK-MEL-28, 72 h, Table 3a, 3 days incubation, read-out: Activity in SK-MEL-28 Tumor Cells
[9] = SK-MEL-28, Table 3b, later runs, average for the one or more runs, categorized, read-out: IC50 for SK-MEL-28
[10] = B-Raf pIC50, Table 1b, later runs, average pIC50 for the one or more runs

T1 sequence (P15056 2-766 V600E): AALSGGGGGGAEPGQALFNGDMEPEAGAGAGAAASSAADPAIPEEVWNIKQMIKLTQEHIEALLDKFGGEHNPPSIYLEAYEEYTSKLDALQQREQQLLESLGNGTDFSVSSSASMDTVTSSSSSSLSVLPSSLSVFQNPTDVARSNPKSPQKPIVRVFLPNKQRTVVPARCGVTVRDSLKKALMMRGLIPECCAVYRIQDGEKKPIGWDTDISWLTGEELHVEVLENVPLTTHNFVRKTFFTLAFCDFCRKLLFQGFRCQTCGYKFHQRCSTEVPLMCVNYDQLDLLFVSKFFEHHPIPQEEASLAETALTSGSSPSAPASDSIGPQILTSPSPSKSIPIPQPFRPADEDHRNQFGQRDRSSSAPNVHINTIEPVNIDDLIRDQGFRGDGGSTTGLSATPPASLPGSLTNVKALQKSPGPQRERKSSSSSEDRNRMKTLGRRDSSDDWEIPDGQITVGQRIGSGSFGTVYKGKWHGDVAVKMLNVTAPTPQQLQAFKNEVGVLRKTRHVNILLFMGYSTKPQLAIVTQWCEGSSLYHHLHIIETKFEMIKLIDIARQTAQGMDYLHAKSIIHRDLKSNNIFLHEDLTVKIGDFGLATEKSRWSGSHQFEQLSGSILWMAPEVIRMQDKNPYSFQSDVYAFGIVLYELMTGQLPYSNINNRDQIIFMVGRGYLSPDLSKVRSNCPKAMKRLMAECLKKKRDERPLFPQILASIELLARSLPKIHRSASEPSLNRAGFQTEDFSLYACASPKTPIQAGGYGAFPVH

CC(C)CNc1nccc(-c2sc(C(C)(C)C)nc2-c2cccc(NS(=O)(=O)c3cc(F)ccc3F)c2F)n1 [Example 92, N-[3-(2-(1,1-Dimethylethyl)-5-{2-[(2-methylpropyl)amino]-4-pyrimidinyl}-1,3-thiazol-4-yl)-2-fluorophenyl]-2,5-difluorobenzenesulfonamide]
IC50 [1, 4]: < 100 nM | IC50 [1, 5]: 3.16 to 31.6 nM | IC50 [2, 6]: < 100 nM | IC50 [2, 7]: < 100 nM | IC50 [3, 8]: < 100 nM | IC50 [3, 9]: < 100 nM

CC(C)c1nc(-c2ccc(F)c(NS(=O)(=O)c3c(F)cccc3F)c2)c(-c2ccnc(NCC(F)F)n2)s1 [Example 93, N-{5-[5-{2-[(2,2-Difluoroethyl)amino]-4-pyrimidinyl}-2-(1-methylethyl)-1,3-thiazol-4-yl]-2-fluorophenyl}-2,6-difluorobenzenesulfonamide]
IC50 [1, 4]: < 100 nM | IC50 [1, 5]: 3.16 to 31.6 nM | IC50 [2, 6]: 100 to 1000 nM | IC50 [2, 7]: 100 to 1000 nM | IC50 [3, 8]: 100 to 1000 nM | IC50 [3, 9]: 100 to 1000 nM

CC(C)(C)c1nc(-c2cccc(NS(=O)(=O)c3cc(F)ccc3F)c2F)c(-c2ccnc(NCC(F)(F)F)n2)s1 [Example 94, N-[3-(2-(1,1-Dimethylethyl)-5-{2-[(2,2,2-trifluoroethyl)amino]-4-pyrimidinyl}-1,3-thiazol-4-yl)-2-fluorophenyl]-2,5-difluorobenzenesulfonamide]
IC50 [1, 4]: < 100 nM | IC50 [1, 5]: 3.16 to 31.6 nM | IC50 [2, 6]: 100 to 1000 nM | IC50 [2, 7]: 100 to 1000 nM | IC50 [3, 8]: 100 to 1000 nM | IC50 [3, 9]: 100 to 1000 nM

CC(C)c1nc(-c2ccc(F)c(NS(=O)(=O)c3c(F)cccc3F)c2)c(-c2ccnc(NCCCN3CCCC3=O)n2)s1 [Example 95, 2,6-Difluoro-N-{2-fluoro-5-[2-(1-methylethyl)-5-(2-{[3-(2-oxo-1-pyrrolidinyl)propyl]amino}-4-pyrimidinyl)-1,3-thiazol-4-yl]phenyl}benzenesulfonamide]
IC50 [1, 4]: < 100 nM | IC50 [1, 10]: 31.6 to 1000 nM | IC50 [2, 6]: 100 to 1000 nM | IC50 [2, 7]: 100 to 1000 nM | IC50 [3, 8]: 100 to 1000 nM | IC50 [3, 9]: 100 to 1000 nM

CC(C)(C)c1nc(-c2cccc(NS(=O)(=O)c3cc(F)ccc3F)c2F)c(-c2ccnc(NCCCN3CCCC3=O)n2)s1 [Example 96, N-{3-[2-(1,1-Dimethylethyl)-5-(2-{[3-(2-oxo-1-pyrrolidinyl)propyl]amino}-4-pyrimidinyl)-1,3-thiazol-4-yl]-2-fluorophenyl}-2,5-difluorobenzenesulfonamide]
IC50 [1, 4]: < 100 nM | IC50 [1, 10]: ≤ 3.16 nM | IC50 [2, 6]: < 100 nM | IC50 [2, 7]: < 100 nM | IC50 [3, 8]: < 100 nM | IC50 [3, 9]: < 100 nM

CC(C)(C)c1nc(-c2cccc(NS(=O)(=O)c3cc(F)ccc3F)c2F)c(-c2ccnc(NCCN3CCCC3=O)n2)s1 [Example 97, N-{3-[2-(1,1-Dimethylethyl)-5-(2-{[2-(2-oxo-1-pyrrolidinyl)ethyl]amino}-4-pyrimidinyl)-1,3-thiazol-4-yl]-2-fluorophenyl}-2,5-difluorobenzenesulfonamide]
IC50 [1, 4]: < 100 nM | IC50 [1, 10]: ≤ 3.16 nM | IC50 [2, 6]: < 100 nM | IC50 [2, 7]: 100 to 1000 nM | IC50 [3, 8]: < 100 nM | IC50 [3, 9]: < 100 nM

CC(C)(C)c1nc(-c2cccc(NS(=O)(=O)c3cc(F)ccc3F)c2F)c(-c2ccnc(NCCNC(=O)CO)n2)s1 [Example 98, N-{2-([4-[4-(3-{[(2,5-Difluorophenyl)sulfonyl]amino}-2-fluorophenyl)-2-(1,1-dimethylethyl)-1,3-thiazol-5-yl]-2-pyrimidinyl}amino)ethyl]-2-hydroxyacetamide]
IC50 [1, 4]: < 100 nM | IC50 [1, 10]: ≤ 3.16 nM | IC50 [2, 6]: < 100 nM | IC50 [2, 7]: < 100 nM | IC50 [3, 8]: < 100 nM | IC50 [3, 9]: < 100 nM

CS(=O)(=O)N1CCN(c2nc(-c3cccc(NS(=O)(=O)c4cc(F)ccc4F)c3F)c(-c3ccnc(N)n3)s2)CC1 [Example 99, N-(3-{5-(2-Amino-4-pyrimidinyl)-2-[4-(methylsulfonyl)-1-piperazinyl]-1,3-thiazol-4-yl}-2-fluorophenyl)-2,5-difluorobenzenesulfonamide]
IC50 [1, 4]: < 100 nM | IC50 [1, 10]: ≤ 3.16 nM | IC50 [2, 6]: 100 to 1000 nM | IC50 [2, 7]: 100 to 1000 nM | IC50 [3, 8]: 100 to 1000 nM | IC50 [3, 9]: 100 to 1000 nM

CS(=O)(=O)N1CCN(c2nc(-c3cccc(NS(=O)(=O)c4c(F)cccc4F)c3F)c(-c3ccnc(N)n3)s2)CC1 [Example 100, N-(3-{5-(2-Amino-4-pyrimidinyl)-2-[4-(methylsulfonyl)-1-piperazinyl]-1,3-thiazol-4-yl}-2-fluorophenyl)-2,6-difluorobenzenesulfonamide]
IC50 [1, 4]: < 100 nM | IC50 [1, 5]: 3.16 to 31.6 nM | IC50 [2, 6]: 100 to 1000 nM | IC50 [2, 7]: 100 to 1000 nM | IC50 [3, 8]: 100 to 1000 nM | IC50 [3, 9]: 100 to 1000 nM

CS(=O)(=O)N1CCC(c2nc(-c3cccc(NS(=O)(=O)c4cc(F)ccc4F)c3F)c(-c3ccnc(N)n3)s2)CC1 [Example 101, N-(3-{5-(2-Amino-4-pyrimidinyl)-2-[1-(methylsulfonyl)-4-piperidinyl]-1,3-thiazol-4-yl}-2-fluorophenyl)-2,5-difluorobenzenesulfonamide]
IC50 [1, 4]: < 100 nM | IC50 [1, 10]: ≤ 3.16 nM | IC50 [2, 6]: < 100 nM | IC50 [2, 7]: < 100 nM | IC50 [3, 8]: < 100 nM | IC50 [3, 9]: < 100 nM

Nc1nccc(-c2sc(N3CCS(=O)(=O)CC3)nc2-c2cccc(NS(=O)(=O)c3c(F)cccc3F)c2F)n1 [Example 102, N-{3-[5-(2-Amino-4-pyrimidinyl)-2-(1,1-dioxido-4-thiomorpholinyl)-1,3-thiazol-4-yl]-2-fluorophenyl}-2,6-difluorobenzenesulfonamide]
IC50 [1, 4]: < 100 nM | IC50 [1, 5]: 3.16 to 31.6 nM | IC50 [2, 6]: 100 to 1000 nM | IC50 [2, 7]: 100 to 1000 nM | IC50 [3, 8]: 100 to 1000 nM | IC50 [3, 9]: 100 to 1000 nM

C[C@@H]1CN(c2nc(-c3cccc(NS(=O)(=O)c4cc(F)ccc4F)c3F)c(-c3ccnc(N)n3)s2)C[C@H](C)O1 [Example 103, N-(3-{5-(2-Amino-4-pyrimidinyl)-2-[(2R,6S)-2,6-dimethyl-4-morpholinyl]-1,3-thiazol-4-yl}-2-fluorophenyl)-2,5-difluorobenzenesulfonamide]
IC50 [1, 4]: < 100 nM | IC50 [1, 10]: ≤ 3.16 nM | IC50 [2, 6]: < 100 nM | IC50 [2, 7]: < 100 nM | IC50 [3, 8]: < 100 nM | IC50 [3, 9]: < 100 nM

Nc1nccc(-c2sc(C3CCCCC3)nc2-c2cccc(NS(=O)(=O)c3c(F)cccc3F)c2F)n1 [Example 104, N-{3-[5-(2-Amino-4-pyrimidinyl)-2-cyclohexyl-1,3-thiazol-4-yl]-2-fluorophenyl}-2,6-difluorobenzenesulfonamide]
IC50 [1, 4]: < 100 nM | IC50 [1, 10]: ≤ 3.16 nM | IC50 [2, 6]: < 100 nM | IC50 [2, 7]: < 100 nM | IC50 [3, 8]: < 100 nM | IC50 [3, 9]: < 100 nM

Nc1nccc(-c2sc(N3CCOCC3)nc2-c2c(F)ccc(NS(=O)(=O)c3cc(F)ccc3F)c2F)n1 [Example 105, N-{3-[5-(2-Amino-4-pyrimidinyl)-2-(4-morpholinyl)-1,3-thiazol-4-yl]-2,4-difluorophenyl}-2,5-difluorobenzenesulfonamide]
IC50 [1, 4]: < 100 nM | IC50 [1, 10]: ≤ 3.16 nM | IC50 [2, 6]: < 100 nM | IC50 [2, 7]: < 100 nM | IC50 [3, 8]: < 100 nM | IC50 [3, 9]: < 100 nM

Nc1nccc(-c2sc(N3CCOCC3)nc2-c2c(F)ccc(NS(=O)(=O)c3c(F)cccc3F)c2F)n1 [Example 106, N-{3-[5-(2-Amino-4-pyrimidinyl)-2-(4-morpholinyl)-1,3-thiazol-4-yl]-2,4-difluorophenyl}-2,6-difluorobenzenesulfonamide]
IC50 [1, 4]: < 100 nM | IC50 [1, 5]: 3.16 to 31.6 nM | IC50 [2, 6]: 100 to 1000 nM | IC50 [2, 7]: 100 to 1000 nM | IC50 [3, 8]: 100 to 1000 nM | IC50 [3, 9]: 100 to 1000 nM

CC(C)(C)c1nc(-c2c(F)ccc(NS(=O)(=O)c3c(F)cccc3F)c2F)c(-c2ccnc(N)n2)s1 [Example 107, N-{3-[5-(2-amino-4-pyrimidinyl)-2-(1,1-dimethylethyl)-1,3-thiazol-4-yl]-2,4-difluorophenyl}-2,6-difluorobenzenesulfonamide]
IC50 [1, 4]: < 100 nM | IC50 [1, 10]: ≤ 3.16 nM | IC50 [2, 6]: < 100 nM | IC50 [2, 7]: < 100 nM | IC50 [3, 8]: < 100 nM | IC50 [3, 9]: < 100 nM

Nc1nccc(-c2oc(N3CCCC3)nc2-c2cccc(NS(=O)(=O)c3c(F)cccc3F)c2)n1 [Example 110, N-{3-[5-(2-Amino-4-pyrimidinyl)-2-(1-pyrrolidinyl)-1,3-oxazol-4-yl]phenyl}-2,6-difluorobenzenesulfonamide]
IC50 [1, 4]: 100 to 1000 nM | IC50 [1, 10]: 31.6 to 1000 nM | IC50 [2, 7]: 1000 to 10000 nM | IC50 [3, 9]: 1000 to 10000 nM

CC(C)CNc1nccc(-c2oc(N3CCCC3)nc2-c2cccc(NS(=O)(=O)c3c(F)cccc3F)c2)n1 [Example 111, 2,6-Difluoro-N-{3-[5-{2-[(2-methylpropyl)amino]-4-pyrimidinyl}-2-(1-pyrrolidinyl)-1,3-oxazol-4-yl]phenyl}benzenesulfonamide]
IC50 [1, 4]: < 100 nM | IC50 [1, 10]: 31.6 to 1000 nM | IC50 [2, 7]: 1000 to 10000 nM | IC50 [3, 9]: 1000 to 10000 nM

CC(C)CNc1nccc(-c2sc(N(C)C)nc2-c2cccc(NS(=O)(=O)c3c(F)cccc3F)c2)n1 [Example 113, N-[3-(2-(Dimethylamino)-5-{2-[(2-methylpropyl)amino]-4-pyrimidinyl}-1,3-thiazol-4-yl)phenyl]-2,6-difluorobenzenesulfonamide]
IC50 [1, 4]: < 100 nM | IC50 [1, 10]: 31.6 to 1000 nM | IC50 [2, 7]: 100 to 1000 nM | IC50 [3, 9]: 100 to 1000 nM

— patent US7994185B2, “Benzene sulfonamide thiazole and oxazole compounds” (Glaxo Smith Kline LLC, priority 2008, dated 2011)
